Experimental data reported in publication PMC8865417, “Receptor Interaction Profiles of 4-Alkoxy-3,5-Dimethoxy-Phenethylamines (Mescaline Derivatives) and Related Amphetamines” (Frontiers in Pharmacology, 2022).

Key:
[1] = target: T1, h5-HT2A receptor (Homo sapiens, UniProt P28223); test: Radioligand binding at h5-HT2A receptor ([3H]ketanserin); details: for Selectivity 5-HT2A vs. 5-HT2C / Selectivity 5-HT2A vs. 5-HT1A: binding ratio; for Ki: h5-HT2A Receptor binding Ki ± SD, [3H]ketanserin, mean ± SD
T1 construct: expressed in transfected cells; host or cells: HEK 293 cells (membrane preparations)

[2] = target: T2, h5-HT1A receptor (Homo sapiens, UniProt P08908); test: Radioligand binding at h5-HT1A receptor ([3H]8-OH-DPAT)
T2 construct: expressed in transfected cells; host or cells: HEK 293 cells (membrane preparations)
T2 sequence (P08908 1-422): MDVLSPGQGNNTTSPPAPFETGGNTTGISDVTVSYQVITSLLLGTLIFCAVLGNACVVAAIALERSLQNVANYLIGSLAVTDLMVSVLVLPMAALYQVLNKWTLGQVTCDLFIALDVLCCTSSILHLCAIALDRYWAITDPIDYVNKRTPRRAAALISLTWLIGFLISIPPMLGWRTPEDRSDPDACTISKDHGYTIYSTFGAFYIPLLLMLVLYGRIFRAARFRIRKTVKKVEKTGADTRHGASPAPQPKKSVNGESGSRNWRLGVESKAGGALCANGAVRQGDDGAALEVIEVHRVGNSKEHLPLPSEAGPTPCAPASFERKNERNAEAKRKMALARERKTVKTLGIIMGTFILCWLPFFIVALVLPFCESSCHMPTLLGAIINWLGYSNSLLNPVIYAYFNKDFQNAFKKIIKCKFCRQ

[3] = target: T3, human TAAR1 (Homo sapiens, UniProt Q96RJ0); test: Activity at the human TAAR1 (cAMP assay, HEK 293 cells); assay type: cell-based
T3 construct: expressed in transfected cells; host or cells: HEK 293 cells
T3 sequence (Q96RJ0 1-339): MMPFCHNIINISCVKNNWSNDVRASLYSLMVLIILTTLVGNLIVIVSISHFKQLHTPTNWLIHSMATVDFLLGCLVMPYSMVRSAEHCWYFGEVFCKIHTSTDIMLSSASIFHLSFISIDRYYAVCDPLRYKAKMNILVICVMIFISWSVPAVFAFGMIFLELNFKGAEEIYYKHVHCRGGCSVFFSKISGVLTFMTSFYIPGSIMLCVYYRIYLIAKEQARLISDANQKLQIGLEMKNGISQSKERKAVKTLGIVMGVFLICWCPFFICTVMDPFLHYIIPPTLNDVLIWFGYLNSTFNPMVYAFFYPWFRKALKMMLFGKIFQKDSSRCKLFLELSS
Procedure: Once 80–90% confluency was reached, the cells were collected by removing the medium, washing with PBS and then adding 5 ml of trypsin/EDTA solution for 5 min at 37°C. Next, 45 ml of medium was added and the entire mixture was transferred into a falcon tube. The tube was then centrifuged at room temperature for 3 min at 900 revolutions per minute (rpm). Next, the supernatant was removed in order to resuspend the remaining cell pellet in fresh medium to 5 × 10^5 cells/ml. Hundred microliter of the cells was transferred into a 96-well plate ([…]; BIOCOAT 6640, Becton Dickinson, Allschwil, Switzerland) and incubated for 20 h at 37°C.
For the cAMP assay, the aspirated medium was replaced with 50 μl PBS without Ca^2+ and Mg^2+ ions. Using snap inversion, the PBS was extracted and the plate was gently tapped against tissue. Next, 90 μl of Krebs-Ringer Bicarbonate buffer (KRB, Sigma-Aldrich) containing 1 mM IBMX was added and incubated for 60 min at 37°C and 5% CO2/95% air. Each test compound was examined in duplicate in a concentration range between 300 pM and 30 μM. A standard curve with a range of cAMP concentrations (0.13 nM–10 μM) was created for each 96-well plate. Each experiment was accompanied with a reference plate that included RO5256390, β-phenylethylamine and p-tyramine. The cells were exposed to either 30 μl of compound solution, 30 μl of β-phenylethylamine (as maximal response), or a basal control in PBS (containing 1 mM IBMX) for 40 min at 37°C. Next, under forceful shaking using black lids, the cells were exposed to 50 μl of 3× detection mix solution (composed of Ru-cAMP Alexa700 anti-cAMP antibody and lysis buffer) for 120 min at room temperature. Using the NanoScan reader (Innovate Optische Messtechnik, Berlin, Germany; 456 nm excitation wavelength; 630 and 700 nm emission wavelengths), the fluorescence was examined and the FRET signal was determined using the following equation; FRET (700 nm)- P × FRET (630 nm), where P = Ru (700 nm)/Ru (630 nm).

[4] = target: T4, hSERT (Homo sapiens, UniProt P31645); test: Radioligand binding at hSERT ([3H]citalopram)
T4 construct: expressed in transfected cells; host or cells: HEK 293 cells (membrane preparations)

[5] = target: T5, hα1A adrenergic receptor (Homo sapiens, UniProt P35348); test: Radioligand binding at hα1A adrenergic receptor ([3H]prazosin); details: mean ± SD
T5 construct: expressed in transfected cells; host or cells: Chinese hamster ovary cells (membrane preparations)
T5 sequence (P35348 1-466): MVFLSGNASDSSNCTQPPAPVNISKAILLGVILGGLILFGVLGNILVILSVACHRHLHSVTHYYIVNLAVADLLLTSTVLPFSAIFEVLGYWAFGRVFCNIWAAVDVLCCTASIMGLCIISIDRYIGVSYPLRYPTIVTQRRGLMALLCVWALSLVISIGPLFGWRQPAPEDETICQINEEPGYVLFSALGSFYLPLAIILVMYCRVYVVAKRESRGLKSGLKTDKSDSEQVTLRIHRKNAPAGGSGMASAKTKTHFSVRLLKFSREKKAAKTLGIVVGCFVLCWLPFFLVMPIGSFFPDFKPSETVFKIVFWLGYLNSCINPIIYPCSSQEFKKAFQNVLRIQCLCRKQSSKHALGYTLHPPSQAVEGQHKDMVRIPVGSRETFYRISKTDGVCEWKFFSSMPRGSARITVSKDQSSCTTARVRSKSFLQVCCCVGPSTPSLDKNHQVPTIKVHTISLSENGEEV

[6] = target: T6, mouse TAAR1 (Mus musculus, UniProt Q923Y8); test: Radioligand binding at mouse TAAR1 ([3H]RO5166017)
T6 construct: expressed in transfected cells; host or cells: HEK 293 cells (membrane preparations)

[7] = target: T7, hα2A adrenergic receptor (Homo sapiens, UniProt P08913); test: Radioligand binding at hα2A adrenergic receptor ([3H]rauwolscine)
T7 construct: expressed in transfected cells; host or cells: Chinese hamster lung cells (membrane preparations)
T7 sequence (P08913 1-465): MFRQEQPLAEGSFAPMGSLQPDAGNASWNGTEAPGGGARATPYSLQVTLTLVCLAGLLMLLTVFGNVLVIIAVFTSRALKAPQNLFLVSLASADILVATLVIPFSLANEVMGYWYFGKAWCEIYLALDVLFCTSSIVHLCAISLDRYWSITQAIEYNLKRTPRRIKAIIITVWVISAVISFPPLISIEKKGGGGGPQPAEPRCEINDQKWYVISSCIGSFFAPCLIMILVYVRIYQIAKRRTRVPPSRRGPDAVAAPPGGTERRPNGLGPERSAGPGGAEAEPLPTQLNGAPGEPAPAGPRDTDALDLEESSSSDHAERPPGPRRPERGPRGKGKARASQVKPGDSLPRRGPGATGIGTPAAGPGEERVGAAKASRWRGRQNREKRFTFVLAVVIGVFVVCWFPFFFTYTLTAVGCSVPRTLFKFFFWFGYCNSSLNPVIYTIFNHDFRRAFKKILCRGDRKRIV

[8] = target: T8, dopaminergic hD2 receptor (Homo sapiens, UniProt P14416); test: Radioligand binding at dopaminergic hD2 receptor ([3H]spiperone)
T8 construct: expressed in transfected cells; host or cells: HEK 293 cells (membrane preparations)
T8 sequence (P14416 whole entry): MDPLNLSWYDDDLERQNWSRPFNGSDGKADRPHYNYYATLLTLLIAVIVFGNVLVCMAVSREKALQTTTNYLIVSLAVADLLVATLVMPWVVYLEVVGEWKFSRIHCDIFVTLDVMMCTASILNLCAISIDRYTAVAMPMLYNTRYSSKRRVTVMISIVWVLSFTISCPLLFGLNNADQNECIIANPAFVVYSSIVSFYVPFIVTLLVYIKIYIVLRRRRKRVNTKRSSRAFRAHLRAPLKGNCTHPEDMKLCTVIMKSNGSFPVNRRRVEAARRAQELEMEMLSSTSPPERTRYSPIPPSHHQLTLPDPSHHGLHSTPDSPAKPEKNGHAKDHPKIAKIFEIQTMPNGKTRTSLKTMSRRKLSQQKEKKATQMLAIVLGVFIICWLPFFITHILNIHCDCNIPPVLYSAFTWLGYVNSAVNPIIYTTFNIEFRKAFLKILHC

T6 sequence (Q923Y8 whole entry): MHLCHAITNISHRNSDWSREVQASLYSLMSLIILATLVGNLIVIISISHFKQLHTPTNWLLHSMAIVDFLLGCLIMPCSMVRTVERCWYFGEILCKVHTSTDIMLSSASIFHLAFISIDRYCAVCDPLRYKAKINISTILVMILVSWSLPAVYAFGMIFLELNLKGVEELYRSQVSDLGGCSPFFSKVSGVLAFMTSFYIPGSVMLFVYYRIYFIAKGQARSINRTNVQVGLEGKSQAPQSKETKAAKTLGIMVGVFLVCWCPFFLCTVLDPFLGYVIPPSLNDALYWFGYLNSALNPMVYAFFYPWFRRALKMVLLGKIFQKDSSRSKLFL
T1 sequence (P28223 whole entry): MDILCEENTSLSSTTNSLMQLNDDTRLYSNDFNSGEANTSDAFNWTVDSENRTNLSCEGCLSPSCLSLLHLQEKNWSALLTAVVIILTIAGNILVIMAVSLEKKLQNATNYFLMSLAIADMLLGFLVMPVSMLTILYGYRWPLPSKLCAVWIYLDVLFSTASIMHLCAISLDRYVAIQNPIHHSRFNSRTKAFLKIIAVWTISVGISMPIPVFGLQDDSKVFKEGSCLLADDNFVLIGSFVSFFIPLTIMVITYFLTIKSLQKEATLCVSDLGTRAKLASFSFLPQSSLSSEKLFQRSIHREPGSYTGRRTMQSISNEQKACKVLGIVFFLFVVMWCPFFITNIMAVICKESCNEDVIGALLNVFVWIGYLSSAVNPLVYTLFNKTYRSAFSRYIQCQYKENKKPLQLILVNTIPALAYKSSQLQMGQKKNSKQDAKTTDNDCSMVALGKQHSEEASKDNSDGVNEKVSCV
T4 sequence (P31645 whole entry): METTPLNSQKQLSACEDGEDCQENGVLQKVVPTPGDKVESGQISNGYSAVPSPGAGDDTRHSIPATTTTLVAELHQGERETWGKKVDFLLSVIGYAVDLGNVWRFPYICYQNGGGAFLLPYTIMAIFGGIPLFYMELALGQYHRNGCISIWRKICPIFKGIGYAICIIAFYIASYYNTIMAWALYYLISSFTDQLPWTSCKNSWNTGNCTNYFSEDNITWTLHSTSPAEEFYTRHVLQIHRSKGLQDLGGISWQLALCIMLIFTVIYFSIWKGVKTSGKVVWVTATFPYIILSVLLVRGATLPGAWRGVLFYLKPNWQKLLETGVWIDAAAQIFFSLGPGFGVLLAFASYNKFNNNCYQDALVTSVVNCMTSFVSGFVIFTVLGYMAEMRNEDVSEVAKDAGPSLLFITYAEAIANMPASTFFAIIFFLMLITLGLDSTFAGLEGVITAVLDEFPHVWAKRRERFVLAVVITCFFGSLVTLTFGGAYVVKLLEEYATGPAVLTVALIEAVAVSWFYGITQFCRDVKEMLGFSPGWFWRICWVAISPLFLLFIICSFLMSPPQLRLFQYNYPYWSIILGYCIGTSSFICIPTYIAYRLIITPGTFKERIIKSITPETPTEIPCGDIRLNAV

With COc1cc(CC(C)N)cc(OC)c1OC(F)F (stereo not drawn) [compound 14, 4-difluoromethoxy-3,5-dimethoxyamphetamine] the “Selectivity 5-HT2A vs. 5-HT2C” value [1] was 2.6, the Ki [1] was 1.4 µM and the Ki [2] was over 5.6 µM. The EC50 [3] was over 10 µM, the Ki [4] was over 7.5 µM and the Ki [5] was over 8.7 µM. For the same compound, the Ki [6] was 1 µM, the Ki [7] was 2.6 µM and the Ki [8] was over 6.3 µM.
In the case of COc1cc(CCN)cc(OC)c1OCCC(F)(F)F [compound 26, 3,5-dimethoxy-4-(3,3,3-trifluoropropoxy)phenethylamine], the “Selectivity 5-HT2A vs. 5-HT1A” value [1] is reported as over 1, the “Selectivity 5-HT2A vs. 5-HT2C” value [1] is reported as 1.1 and the Ki [1] is reported as 5 µM. It also gave a Ki [2] of over 5.6 µM, an EC50 [3] of over 10 µM and a Ki [4] of over 7.5 µM. For the same compound, the Ki [5] was over 8.7 µM, the Ki [6] was over 4.2 µM and the Ki [7] was 2.3 µM. It also gave a Ki [8] of over 6.3 µM.
With CCCOc1c(OC)cc(CC(C)N)cc1OC (stereo not drawn) [compound 28, 3,5-dimethoxy-4-propyloxyamphetamine] the “Selectivity 5-HT2A vs. 5-HT2C” value [1] was 2.0, the Ki [1] was 1 µM and the “Increase in 5-HT2A receptor affinity compared with TMA (6)” value ([1]; ratio of Ki values) was at least 10 fold. The Ki [2] was over 5.6 µM, the EC50 [3] was over 10 µM and the Ki [4] was over 7.5 µM. The Ki [5] was over 8.7 µM, the Ki [6] was 1.8 µM and the Ki [7] was 4.6 µM. For the same compound, the Ki [8] was over 6.3 µM.
For COc1cc(CCN)cc(OC)c1OCC(F)(F)F [compound 18, 3,5-dimethoxy-4-(2,2,2-trifluoroethoxy)phenethylamine], the “Selectivity 5-HT2A vs. 5-HT2C” value [1] was 0.9, the Ki [1] was 1.3 µM and the Ki [2] was over 5.6 µM. The EC50 [3] was over 10 µM, the Ki [4] was over 7.5 µM and the Ki [5] was over 8.7 µM. For the same compound, the Ki [6] was over 4.2 µM, the Ki [7] was 2.3 µM and the Ki [8] was over 6.3 µM.
COc1cc(CCN)cc(OC)c1OCCCF [compound 25, 3,5-dimethoxy-4-(3-fluoropropoxy)-phenethylamine] was tested, and the “Selectivity 5-HT2A vs. 5-HT1A” value [1] was under 1, the “Selectivity 5-HT2A vs. 5-HT2C” value [1] was 0.6 and the Ki [1] was 9.3 µM. The Ki [2] was over 5.6 µM, the EC50 [3] was over 10 µM and the Ki [4] was over 7.5 µM. The Ki [5] was over 8.7 µM, the Ki [6] was over 4.2 µM and the Ki [7] was 2.9 µM. It also gave a Ki [8] of over 6.3 µM.
For COc1cc(CCN)cc(OC)c1OC1CC1 [compound 29, 4-cyclopropyloxy-3,5-dimethoxyphenethylamine], the “Selectivity 5-HT2A vs. 5-HT1A” value [1] was 0.9, the “Selectivity 5-HT2A vs. 5-HT2C” value [1] was 1.3 and the Ki [1] was 4.3 µM. It also gave a Ki [2] of 4 µM, an EC50 [3] of over 10 µM and a Ki [4] of over 7.5 µM. It also gave a Ki [5] of over 8.7 µM, a Ki [6] of over 4.2 µM and a Ki [7] of 1.2 µM. The Ki [8] was over 6.3 µM.
COc1cc(CCN)cc(OC)c1OCc1ccccc1 [compound 33, 4-benzyloxy-3,5-dimethoxyphenethylamine] was tested, and the “Selectivity 5-HT2A vs. 5-HT1A” value [1] was 29, the “Selectivity 5-HT2A vs. 5-HT2C” value [1] was 2.9 and the Ki [1] was 0.15 ± 0.01 µM. The “Higher affinity at the 5-HT2A receptor compared to mescaline (5)” value (from here on “Higher affinity … compared to mescaline (5)”) ([1]; ratio of Ki values) was 17- to 63 fold, the Ki [2] was 4.4 µM and the EC50 [3] was over 10 µM. It also gave a Ki [4] of over 7.5 µM, a Ki [5] of over 8.7 µM and a Ki [6] of 2.4 µM. The Ki [7] was 2.3 µM and the Ki [8] was over 6.3 µM.
COc1cc(CCN)cc(OC)c1OC(CF)CF [compound 23, 3,5-dimethoxy-4-(1,3-difluoroprop-2-yloxy)phenethylamine] gave a Ki [1] of over 12 µM, a Ki [2] of over 5.6 µM and an EC50 [3] of over 10 µM. It also gave a Ki [4] of over 7.5 µM, a Ki [5] of over 8.7 µM and a Ki [6] of over 4.2 µM. For the same compound, the Ki [7] was 2.7 µM and the Ki [8] was over 6.3 µM.
In the case of COc1cc(CCN)cc(OC)c1OC(F)(F)F [compound 13, 4-trifluoromethoxy-3,5-dimethoxyphenethylamine], the “Selectivity 5-HT2A vs. 5-HT1A” value [1] is reported as 7.9, the “Selectivity 5-HT2A vs. 5-HT2C” value [1] is reported as 1.0 and the Ki [1] is reported as 0.28 ± 0.1 µM. For the same compound, the “Higher affinity … compared to mescaline (5)” value ([1]; ratio of Ki values) was 17- to 63 fold, the Ki [2] was 2.2 µM and the EC50 [3] was over 10 µM. It also gave a Ki [4] of over 7.5 µM, a Ki [5] of 3.2 µM and a Ki [6] of 1.9 µM. It also gave a Ki [7] of 0.45 ± 0.06 µM and a Ki [8] of over 6.3 µM.
With C=C(C)COc1c(OC)cc(CCN)cc1OC [compound 32, 3,5-dimethoxy-4-methallyloxyphenethylamine] the “Selectivity 5-HT2A vs. 5-HT1A” value [1] was 9.3, the “Selectivity 5-HT2A vs. 5-HT2C” value [1] was 0.9 and the Ki [1] was 0.55 ± 0.19 µM. For the same compound, the “Higher affinity … compared to mescaline (5)” value ([1]; ratio of Ki values) was 17- to 63 fold, the Ki [2] was 5.1 µM and the EC50 [3] was over 10 µM. It also gave a Ki [4] of over 7.5 µM, a Ki [5] of over 8.7 µM and a Ki [6] of 3.9 µM. For the same compound, the Ki [7] was 1.5 µM and the Ki [8] was over 6.3 µM.
